Assay: xn = mol fraction of the nth substance listed
Conditions: 101 kPa, Liquid

CC1COC(=O)O1 (configuration not stated) [4-methyl-1,3-dioxolan-2-one] + Cc1ccc(C)cc1
Conditions	mass density [kg/m3]
293.15 K, x2 = 0	1200.25
293.15 K, x2 = 0.0487	1177.59
293.15 K, x2 = 0.1238	1144.26
293.15 K, x2 = 0.1793	1120.81
293.15 K, x2 = 0.2482	1093.01
293.15 K, x2 = 0.3125	1068.33
293.15 K, x2 = 0.381	1043.26
293.15 K, x2 = 0.4371	1023.64
293.15 K, x2 = 0.4972	1003.44
293.15 K, x2 = 0.5622	982.49
293.15 K, x2 = 0.6329	960.71
293.15 K, x2 = 0.6938	942.7
293.15 K, x2 = 0.7421	928.88
293.15 K, x2 = 0.8023	912.2
293.15 K, x2 = 0.8592	896.93
293.15 K, x2 = 0.9247	879.91
303.15 K, x2 = 0	1180.56
303.15 K, x2 = 0.0523	1157.1
303.15 K, x2 = 0.123	1126.84
303.15 K, x2 = 0.1836	1102.14
303.15 K, x2 = 0.2381	1080.85
303.15 K, x2 = 0.3263	1048.15
303.15 K, x2 = 0.3741	1031.29
303.15 K, x2 = 0.4233	1014.5
303.15 K, x2 = 0.4794	996.06
303.15 K, x2 = 0.5573	971.57
303.15 K, x2 = 0.6233	951.77
303.15 K, x2 = 0.6843	934.2
303.15 K, x2 = 0.7538	914.94
303.15 K, x2 = 0.8148	898.66
303.15 K, x2 = 0.8731	883.59
303.15 K, x2 = 0.9362	867.79
313.15 K, x2 = 0	1161.28
313.15 K, x2 = 0.0543	1137.8
313.15 K, x2 = 0.1173	1111.72
313.15 K, x2 = 0.1598	1094.8
313.15 K, x2 = 0.2294	1068.21
313.15 K, x2 = 0.2849	1047.95
313.15 K, x2 = 0.3598	1021.87
313.15 K, x2 = 0.4381	996.03
313.15 K, x2 = 0.482	982.14
313.15 K, x2 = 0.5359	965.64
313.15 K, x2 = 0.6021	946.14
313.15 K, x2 = 0.6721	926.39
313.15 K, x2 = 0.7359	909.11
313.15 K, x2 = 0.8243	886.17
313.15 K, x2 = 0.8817	871.85
313.15 K, x2 = 0.9274	860.74
323.15 K, x2 = 0	1142.43
323.15 K, x2 = 0.0623	1116.49
323.15 K, x2 = 0.1246	1091.71
323.15 K, x2 = 0.1822	1069.79
323.15 K, x2 = 0.2483	1045.74
323.15 K, x2 = 0.3193	1021.16
323.15 K, x2 = 0.3719	1003.72
323.15 K, x2 = 0.4389	982.42
323.15 K, x2 = 0.5032	962.87
323.15 K, x2 = 0.5579	946.88
323.15 K, x2 = 0.6234	928.45
323.15 K, x2 = 0.6972	908.56
323.15 K, x2 = 0.7529	894.11
323.15 K, x2 = 0.8137	878.84
323.15 K, x2 = 0.8724	864.57
323.15 K, x2 = 0.9378	849.15
333.15 K, x2 = 0	1123.99
333.15 K, x2 = 0.0598	1099.91
333.15 K, x2 = 0.1387	1069.71
333.15 K, x2 = 0.1738	1056.82
333.15 K, x2 = 0.2384	1033.93
333.15 K, x2 = 0.3283	1003.8
333.15 K, x2 = 0.3918	983.64
333.15 K, x2 = 0.452	965.32
333.15 K, x2 = 0.5138	947.26
333.15 K, x2 = 0.5821	928.14
333.15 K, x2 = 0.6518	909.44
333.15 K, x2 = 0.7139	893.44
333.15 K, x2 = 0.783	876.29
333.15 K, x2 = 0.8346	863.9
333.15 K, x2 = 0.8814	852.95
333.15 K, x2 = 0.9471	837.99
343.15 K, x2 = 0	1105.98
343.15 K, x2 = 0.0643	1081
343.15 K, x2 = 0.1241	1058.78
343.15 K, x2 = 0.1839	1037.51
343.15 K, x2 = 0.245	1016.69
343.15 K, x2 = 0.3183	992.89
343.15 K, x2 = 0.3891	971.03
343.15 K, x2 = 0.4498	953.11
343.15 K, x2 = 0.5021	938.24
343.15 K, x2 = 0.5721	919.11
343.15 K, x2 = 0.6592	896.46
343.15 K, x2 = 0.7134	882.94
343.15 K, x2 = 0.7635	870.82
343.15 K, x2 = 0.8247	856.45
343.15 K, x2 = 0.8848	842.78
343.15 K, x2 = 0.9522	827.92
353.15 K, x2 = 0	1088.38
353.15 K, x2 = 0.0505	1069.32
353.15 K, x2 = 0.1184	1044.77
353.15 K, x2 = 0.1739	1025.56
353.15 K, x2 = 0.2289	1007.26
353.15 K, x2 = 0.2847	989.41
353.15 K, x2 = 0.3571	967.26
353.15 K, x2 = 0.4248	947.53
353.15 K, x2 = 0.4972	927.39
353.15 K, x2 = 0.5539	912.26
353.15 K, x2 = 0.6198	895.34
353.15 K, x2 = 0.674	881.93
353.15 K, x2 = 0.7354	867.23
353.15 K, x2 = 0.7842	855.91
353.15 K, x2 = 0.8527	840.5
353.15 K, x2 = 0.9247	824.87

Source: the NIST ThermoML archive (doi:10.1016/j.jct.2005.01.017)
